Values of other authors as cited in US20260022280A1, “LOW VOC SOLVENT CEMENT FORMULATION WITH REDUCED TOXICITY AND RAPID CURING” (Ashirvad Pipes Pvt Ltd, priority 2022, published 2026).
Like-named read-outs stand apart in the source and are kept apart here.

Legend:
[1] = for ECHA Concern: Yes / No
[2] = test system: Rat; settings: in vivo
[3] = test system: Rat; settings: 4 h
[4] = total solubility parameter
[5] = test system: Rabbit
[6] = solvents
[7] = test system: Mouse; settings: 4 h
[8] = test system: Rat; settings: Rat male and female

Compound | ECHA Concern [1] | Vapour Pressure (at 20° C.) | other results
CC(=O)CCC(C)C [Methyl iso amyl ketone] | Yes | 4.5 mm Hg | 
COC(=O)OC [Dimethyl Carbonate] | No |  | Vapour Pressure ((25° C.)): 55.5 mm Hg
CC1CCCO1 (stereo not shown) [2-Methyl tetrahydrofuran] | No | 102 mm Hg | 
CCO [Ethanol] | Yes | 43.5 mm Hg | 
O=C1CCCC1 [Cyclopentanone] | No | 11.4 mm Hg | 
CCCCOC(C)=O [N-butyl acetate] | No |  | 
O=C1CCCCC1 [CYH, Cyclohexanone] | No | 3.75 mm Hg | LD50 Oral [2]: 1544 mg/kg; LD50 Inhalation ([3]; Rat): 8000 ppm; SPo (Total) [4]: 9.6 (Cal/cm^3)^1/2; LD50 Dermal [5]: 947 mg/kg
CO [Methanol] |  | 96.75 mm Hg | 
CC(C)=O [ACE, Acetone] | No | 180 mm Hg | Density [6]: 0.78 g/cc; SPo (Total) [4]: 9.8 (Cal/cm^3)^1/2
CCC(C)=O [MEK, Methyl Ethyl Ketone] |  | 15 mm Hg | Density [6]: 0.80 g/cc; LC50 Inhalation [7]: 32.000 mg/m3
CC(=O)C(C)C [Methyl iso propyl ketone] | No | 41.25 mm Hg | 
C1COCO1 [1,3 Dioxolane] |  |  | LD50 ([2]; po): 5200 mg/kg
O=C1CCCO1 [γ-Butyrolactone] | No | 1.12 mm Hg | 
C[S+](C)[O-] [Dimethyl sulfoxide] | No | 0.44 mm Hg | 
CCCC(C)=O [MPK, Methyl Propyl Ketone] | No | 12 mm Hg | Density [6]: 0.80 g/cc; LD50 Oral [2]: > 16000 mg/kg; SPo (Total) [4]: 9.6 (Cal/cm^3)^1/2; LD50 Dermal [8]: > 6480 mg/kg
CN1CCCC1=O [N-Methyl-2-Pyrrolidone] | Yes | 0.29 mm Hg | 
CN(C)C=O [Dimethylformamide] |  | 3.67 mm Hg | 
CCOCCOCC [1,2 Diethoxy ethane] | Yes | 9 mm Hg | 
COC(C)=O [N-methylacetate] | Yes | 173 mm Hg | 
COC(=O)CCCCC(=O)OC [Dimethyl adipate] | No | 0.06 mm Hg | 
CCCCCC(C)=O [Methyl amyl ketone] | No | 1.5 mm Hg | 
CCC(=O)CC [Diethyl ketone] | No | 15 mm Hg | 
CCOC(C)OCC [1,1 Diethoxy ethane] | Yes | 20.25 mm Hg | 
CC(=O)CC(C)=O [Acetylacetone] |  | 2.96 mm Hg | 
CC(=O)OC(C)(C)C [t-butyl acetate] | No |  | Vapour Pressure ((25° C.)): 47.25 mm Hg
C1CCOC1 [THF, Tetrahydrofuran] | Yes | 145 mm Hg | Density [6]: 0.88 g/cc; Hazard Classification & labelling ([1]; ECHA, harmonised classification / REACH registrations): suspected to be Carcinogenic; LC50 Inhalation ([3]; Rat male and female): 4 h −> 16.9 mg/l; Vapour Pressure (at 20° C., listed as Tetrahydrofuran): 144.76 mm Hg
CCN1CCCCCC1=O [N-ethyl caprolactam] | No |  | 
COC1CCCC1 [Cyclopentyl Methyl Ether] | No |  | Vapour Pressure ((25° C.)): 44.92 mm Hg
CCOC(C)=O [Ethyl acetate] | No | 75 mm Hg | 
